According to publication PMC3199943, “Screening the MayBridge Rule of 3 Fragment Library for Compounds That Interact with the Trypanosoma brucei myo-Inositol-3-Phosphate Synthase and/or Show Trypanocidal Activity” (Molecular Biology International, 2011):
Read-outs that look alike come from different tables or passages of the source.

Key:
[1] = test system: A549 cells; assay: Cytotoxicity against A549 cells, Alamar Blue; assay type: cell-based; details: Supplementary Table 1, compound 0.5 mM, percentage of controls (n=1); for viability at 500 µM: Homo sapiens, A549, 65 h
In short: (§1)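 Viability by Alamar Blue (5 h) after ~65 h drug treatment; seeding density 2 × 10^4 cells/well in DMEM supplemented with 10% FCS and 2 mM L-Glutamine.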

[2] = biological target: T1, TbINO1 (Trypanosoma brucei brucei, UniProt Q5QQ46); assay: biochemical; assay type: binding; details: for TbINO1 Tm increase: positive control
T1 sequence (Q5QQ46 1-528): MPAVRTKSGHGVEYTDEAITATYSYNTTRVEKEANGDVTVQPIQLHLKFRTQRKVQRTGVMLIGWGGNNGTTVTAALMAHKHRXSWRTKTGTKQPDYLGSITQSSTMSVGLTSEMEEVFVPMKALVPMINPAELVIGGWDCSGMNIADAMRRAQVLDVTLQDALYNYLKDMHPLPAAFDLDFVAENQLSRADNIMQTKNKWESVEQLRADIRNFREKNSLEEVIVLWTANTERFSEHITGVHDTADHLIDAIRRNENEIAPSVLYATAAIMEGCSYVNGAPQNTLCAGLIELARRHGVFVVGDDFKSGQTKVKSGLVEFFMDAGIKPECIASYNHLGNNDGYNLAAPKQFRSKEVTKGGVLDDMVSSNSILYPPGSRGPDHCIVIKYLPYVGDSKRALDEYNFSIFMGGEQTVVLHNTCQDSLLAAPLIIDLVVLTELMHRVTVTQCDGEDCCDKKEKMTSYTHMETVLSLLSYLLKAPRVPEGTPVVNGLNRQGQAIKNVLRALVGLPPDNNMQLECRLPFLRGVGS

[3] = test system: HeLa cells; assay: cells; details: for HeLa Cells Alamar Blue: Supplementary Table 1; for viability at 500 µM / CC50: Homo sapiens, HeLa; for viability at 500 µM: 65 h; for CC50: read-out: HeLa ED50
In short: as §1

[4] = Supplementary Table 1, compound 1mM, mean ± SD from Boltzman curve fitting
[5] = compound 0.5 mM, percentage of controls, mean ± SD (n=3) or SE (n=2)
[6] = read-out: Tb Ino1 Tm Shift [˚C]
[7] = read-out: HeLa Cells Alamar Blue
[8] = read-out: HeLa Cells Alamar Blue (% survival)

| SMILES | viability at 500 µM [1] | viability at 500 µM [3, 7] | other results |
| --- | --- | --- | --- |
| Cn1nc(C(C)(C)C)cc1N [compound 216, 3‐(tert‐butyl)‐1‐methyl‐1H‐pyrazol‐5‐amine] |  |  | A549 Cells Alamar Blue [1]: 56.7 percentage of controls; Tb Ino1 Tm Shift [˚C] [2, 4]: 0.15 ± 0.07 °C; HeLa Cells Alamar Blue [3, 5]: 80.1 ± 11.3 percentage of controls |
| Nc1ccc2c(c1)OCCO2 [compound 193, 2,3‐dihydro‐1,4‐benzodioxin‐6‐amine] | 44.7% | 79.9 ± 13.6% | ΔTm at 1000 µM [2, 6]: 0.4 ± 0.09 °C |
| O=C(O)C1NCCS1 (stereo not drawn) [compound 103, 1,3-thiazolane-2-carboxylic acid] | 107% | 103 ± 6.4% | ΔTm at 1000 µM ([2]; read-out: TbIno1 Tm shift [°C]): 2.63 ± 0.08 °C; viability at 500 µM [3, 8]: 103 ± 6.4% |
| CCc1cccc(C)n1 [compound 52, 2‐ethyl‐6‐methylpyridine] | 70.8% | 89.7 ± 9.7% | ΔTm at 1000 µM [2, 6]: 0.4 ± 0.08 °C |
| Clc1ccc2nonc2c1 [compound 225, 5‐chloro‐2,1,3‐benzoxadiazole] | 68.9% | 91.4 ± 15.1% | ΔTm at 1000 µM [2, 6]: 0.81 ± 0.19 °C |
| NC(=S)N1CCOCC1 [compound 159, morpholine‐4‐carbothioamide] | 109% | 93.8 ± 9.3% | ΔTm at 1000 µM [2, 6]: 0.21 ± 0.05 °C |
| O=C(O)c1cc2ccccc2cn1 [compound 555, isoquinoline‐3‐carboxylic acid hydrate] | 100% | 92.1 ± 10.1% | ΔTm at 1000 µM ([2]; Supplementary Table 1, compound 1mM, mean ± SD from Boltzman curve fitting, read-out: Tb Ino1 Tm Shift [˚C]): 0.5 ± 0.09 °C |
| O=C(O)C12CC3CC(CC(O)(C3)C1)C2 [compound 597, 3‐hydroxyadamantane‐1‐carboxylic acid] | 79.4% | 75.2 ± 12.6% | ΔTm at 1000 µM [2, 6]: 0.29 ± 0.06 °C |
| CC(=O)c1cc(C)ccc1O [compound 184, 1‐(2‐hydroxy‐5‐methylphenyl)ethan‐1‐one] |  |  | A549 Cells Alamar Blue [1]: 53.1 percentage of controls; Tb Ino1 Tm Shift [˚C] [2, 4]: 0.14 ± 0 °C; HeLa Cells Alamar Blue [3, 5]: 91.7 ± 11.6 percentage of controls |
| O=C(O)c1ccc(-c2ccsc2)cc1 [compound 648, 4‐(3‐thienyl)benzoic acid] | 149% | 105 ± 8.2% | ΔTm at 1000 µM [2, 6]: 0.25 ± 0.08 °C |
| O=C(O)c1cccc(-c2ccccn2)c1 [compound 611, 3‐pyrid‐2‐ylbenzoic acid] | 73.9% | 87 ± 12.6% | ΔTm at 1000 µM [2, 6]: 0.19 ± 0.07 °C |
| Cc1csc(N)c1C(N)=O [compound 239, 2-amino-4-methylthiophene-3-carboxamide] | 69.8% | 95.8 ± 9.3% | ΔTm at 1000 µM ([2]; read-out: TbIno1 Tm shift [°C]): 2.05 ± 0.05 °C; viability at 500 µM [3, 8]: 95.8 ± 9.3%; CC50 [3]: > 20000 µM |
| N#Cc1cccc(-n2ccnc2)c1 [compound 339, 3‐(1H‐imidazol‐1‐yl)benzonitrile] | 135% | 89.8 ± 5.8% | ΔTm at 1000 µM [2, 6]: 0.39 ± 0.06 °C |
| c1cncc(-n2cccc2)c1 [compound 151, 3‐(1H‐pyrrol‐1‐yl)pyridine] | 90.1% | 90.3 ± 6% | ΔTm at 1000 µM [2, 6]: 0.43 ± 0.06 °C |
| CNCc1ccncc1 [compound 56, N‐methyl‐N‐(4‐pyridinylmethyl)amine] | 78.5% | 87.9 ± 9.9% | ΔTm at 1000 µM [2, 6]: 0.01 ± 0.08 °C |
| O=C[C@H](O)[C@@H](O)[C@H](O)[C@H](O)COP(=O)(O)O [glucose-6-phosphate, reference compound] |  |  | TbINO1 Tm increase ([2]; substrate, 5 mM): 0.70 ± 0.28 °C |
| O=CC[C@@H](O)[C@H](O)[C@H](O)COP(=O)(O)O [2-deoxy-glucose-6-phosphate, reference compound] |  |  | TbINO1 Tm increase ([2]; inhibitor, 4 mM): 2.84 ± 0.47 °C |
| O=C(O)c1cccc2c1OCC2 [compound 297, 2,3‐dihydrobenzo[b]furan‐7‐carboxylic acid] |  |  | A549 Cells Alamar Blue [1]: 74.9 percentage of controls; HeLa Cells Alamar Blue [3, 5]: 78.8 ± 7.5 percentage of controls |
| COC(=O)c1scc(C)c1Cl [compound 551, methyl 3‐chloro‐4‐methylthiophene‐2‐carboxylate] |  |  | A549 Cells Alamar Blue [1]: 104.9 percentage of controls; HeLa Cells Alamar Blue [3, 5]: 90.7 ± 10.3 percentage of controls |
| N#Cc1ccc(N)cc1C(F)(F)F [compound 500, 4‐amino‐2‐(trifluoromethyl)benzonitrile] | 72.8% | 51 ± 10.6% |  |
| Nc1ccc(C(F)(F)F)cc1 [compound 270, 4‐(trifluoromethyl)aniline] | 104% | 21.8 ± 14.5% | CC50 [3]: 206 ± 13 µM |
| COC(=O)c1cc2ccccc2cn1 [compound 514, methyl isoquinoline‐3‐carboxylate] | 65.3% | 79.5 ± 14.3% |  |
| COC(=O)c1ccc(N)c(C)c1 [compound 304, methyl 4‐amino‐3‐methylbenzoate] | 63.4% | 100 ± 8.9% |  |

| SMILES | viability at 500 µM [1] | viability at 500 µM [3, 7] | other results |
| --- | --- | --- | --- |
| c1ccc(-c2cc[nH]n2)cc1 [compound 150, 3‐phenyl‐1H‐pyrazole] | 82% | 74.6 ± 17.7% |  |
| Nc1ccc(N2CCCCC2)cc1 [compound 413, 4‐piperidinoaniline] | 53.2% | 11.6 ± 5.1% |  |
| Clc1ccsc1 [compound 48, 3‐chlorothiophene] | 101% | 95.5 ± 2% |  |
| OCc1ccc(Oc2ccccc2)cc1 [compound 622, (4‐phenoxyphenyl)methanol] | 70.7% | 78.3 ± 15.4% |  |
| CSc1ccccc1CN [compound 217, 2‐(methylthio)benzylamine] | 70.3% | 27.1 ± 0.5% |  |
| Nc1ccc(C(F)(F)F)cn1 [compound 283, 5‐(trifluoromethyl)pyridin‐2‐amine] | 63.6% | 92.7 ± 5.3% |  |
| OCc1ccc(Cn2cccn2)cc1 [compound 529, [4‐(1H‐pyrazol‐1‐ylmethyl)phenyl]methanol] |  |  | A549 Cells Alamar Blue [1]: 94 percentage of controls; HeLa Cells Alamar Blue [3, 5]: 85 ± 5.2 percentage of controls |
| Cc1ccccc1NC(N)=S [compound 326, N‐(2‐methylphenyl)thiourea] | 125% |  | viability at 500 µM ([3]; read-out: HeLa Cells Alamar Blue, Supplementary Table 1, compound 0.5 mM, percentage of controls, mean ± SD (n=3) or SE (n=2)): 111 ± 8.5% |
| Nc1ccc2[nH]ncc2c1 [compound 101, 1H‐indazol‐5‐amine] | 70.6% | 31.7 ± 16.2% |  |
| Cn1nc(CO)cc1-c1cccs1 [compound 586, (1‐methyl‐5‐thien‐2‐yl‐1H‐pyrazol‐3‐yl)methanol] |  |  | A549 Cells Alamar Blue [1]: 63.4 percentage of controls; HeLa Cells Alamar Blue [3, 5]: 82 ± 15.2 percentage of controls |
| COC(=O)c1scc(C)c1N [compound 354, methyl 3‐amino‐4‐methylthiophene‐2‐carboxylate] |  |  | A549 Cells Alamar Blue [1]: 32.3 percentage of controls; HeLa Cells Alamar Blue [3, 5]: 72.8 ± 8.6 percentage of controls |
| O=C(O)c1ccc(-c2ccccc2)s1 [compound 649, 5‐phenylthiophene‐2‐carboxylic acid] | 141% | 122 ± 18.7% |  |
| COC(=O)c1ccccc1Cl [compound 352, methyl 2‐chlorobenzoate] | 76.4% | 95.8 ± 19% |  |
| Cc1ccc(-c2cnco2)cc1 [compound 259, 5‐(4‐methylphenyl)‐1,3‐oxazole] | 88.1% | 88.4 ± 2.5% |  |
| COC(=O)CSc1ccccc1 [compound 466, methyl 2‐(phenylthio)acetate] | 84.7% | 102 ± 4.8% |  |
| NCC1COc2ccccc2O1 (stereo not drawn) [compound 309, 2,3‐dihydro‐1,4‐benzodioxin‐2‐ylmethylamine] |  |  | A549 Cells Alamar Blue [1]: 68.9 percentage of controls; HeLa Cells Alamar Blue [3, 5]: 12.3 ± 8.8 percentage of controls |
| Cn1cccc1C(=O)O [compound 69, 1‐methyl‐1H‐pyrrole‐2‐carboxylic acid] | 70.2% | 95.3 ± 2.5% |  |
| Cc1cc(C)n(C)n1 [compound 24, 1,3,5‐trimethyl‐1H‐pyrazole] | 88.5% | 99.7 ± 11.5% |  |
| CNCc1scc2c1OCCO2 [compound 495, N‐(2,3‐dihydrothieno[3,4‐b][1,4]dioxin‐5‐ylmethyl)‐N‐methylamine] |  |  | A549 Cells Alamar Blue [1]: 96.9 percentage of controls; HeLa Cells Alamar Blue [3, 5]: 43.6 ± 17.7 percentage of controls |
| NCc1cccc(-n2cccc2)c1 [compound 364, 3‐(1H‐pyrrol‐1‐yl)benzylamine] | 56.9% | 29.5 ± 12.9% | CC50 [3]: 40.4 ± 1.8 µM |
| OCC1CCc2ccccc2O1 (stereo not drawn) [compound 299, 3,4‐dihydro‐2H‐chromen‐2‐ylmethanol] | 80.3% | 85.1 ± 14.7% |  |
| Cn1nc(O)cc1C(F)(F)F [compound 316, 1‐methyl‐5‐(trifluoromethyl)‐1H‐pyrazol‐3‐ol] |  |  | A549 Cells Alamar Blue [1]: 95.3 percentage of controls; HeLa Cells Alamar Blue [3, 5]: 111.8 ± 17.2 percentage of controls |
